# ChEMBL document CHEMBL1201862, “PubChem BioAssay data set” (2004)
#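 1) Cells in 96-well plates. 2) Compound, 48 h, 5 concentrations. 3) Linear interpolation between surrounding doses. 4) Unreached endpoint = highest concentration. GI50 = concentration required for 50% inhibition of growth.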 Activity calls are given as the source filed them. Cut-off read from the data, not from the text of the source: active = GI50 up to about 1.1 µM and inactive = higher.
# Legend:
# Test in all cases: DTP human tumour cell line panel, 48 h
# [1] = system: K562
# [2] = system: SN12C
# [3] = system: OVCAR-3
# [4] = system: U-251
# [5] = system: LOX IMVI
# [6] = system: HL-60
# [7] = system: SNB-75
# [8] = system: CCRF-CEM
# [9] = system: HOP-62
# [10] = system: A498
# [11] = system: ACHN
# [12] = system: SF-539
# [13] = system: A549
# [14] = system: SW-620
# [15] = system: SK-OV-3
# [16] = system: NCI-H522
# [17] = system: MDA-MB-435
# [18] = system: NCI/ADR-RES
Structure (SMILES),GI50 [1],GI50 [2],GI50 [3],GI50 [4],GI50 [5],GI50 [6],GI50 [7],GI50 [8],GI50 [9],GI50 [10],GI50 [11],GI50 [12],GI50 [13],GI50 [14],GI50 [15],GI50 [16],GI50 [17],GI50 [18]
O=C(CN1CCOCC1)Nc1nc(-c2ccc(Cl)cc2)cs1,19.4 µM (inactive),34.3 µM (inactive),22.3 µM (inactive),24.2 µM (inactive),22.2 µM (inactive),17.3 µM (inactive),19 µM (inactive),21.3 µM (inactive),22.6 µM (inactive),23.1 µM (inactive),25.1 µM (inactive),44.4 µM (inactive),24.4 µM (inactive),41.8 µM (inactive),65.3 µM (inactive),–,–,–
[O-][S+](Nc1ccccc1)c1cccc(Cl)c1 (stereo not drawn),37.3 µM (inactive),> 100 µM (inactive),> 100 µM (inactive),53.2 µM (inactive),60.5 µM (inactive),48.6 µM (inactive),76.6 µM (inactive),50.4 µM (inactive),> 100 µM (inactive),–,25.5 µM (inactive),27.5 µM (inactive),39.7 µM (inactive),> 100 µM (inactive),–,57.3 µM (inactive),72.1 µM (inactive),34.6 µM (inactive)
O=[N+]([O-])c1ccc2c(/N=N/c3c(O)ccc4ccccc34)c(O)cc(S(=O)(=O)O)c2c1,9.16 µM (inactive),25.6 µM (inactive),1.69 µM (inactive),3.45 µM (inactive),17.4 µM (inactive),1.09 µM (active),21.9 µM (inactive),0.869 µM (active),6.73 µM (inactive),–,4.86 µM (inactive),16.5 µM (inactive),15.4 µM (inactive),13.8 µM (inactive),36.4 µM (inactive),4.76 µM (inactive),7.98 µM (inactive),6.92 µM (inactive)
[N-]=[N+]=CC(=O)OCC1SCCCS1,> 100 µM (inactive),> 100 µM (inactive),> 100 µM (inactive),> 100 µM (inactive),> 100 µM (inactive),> 100 µM (inactive),–,> 100 µM (inactive),89.7 µM (inactive),> 100 µM (inactive),78.9 µM (inactive),–,–,> 100 µM (inactive),> 100 µM (inactive),> 100 µM (inactive),> 100 µM (inactive),–
CCCCC(N)CSSCC(N)CCCC (stereo not drawn),19.4 µM (inactive),19.5 µM (inactive),20.8 µM (inactive),–,17.6 µM (inactive),16.4 µM (inactive),30.6 µM (inactive),20.3 µM (inactive),27.3 µM (inactive),25.8 µM (inactive),34.4 µM (inactive),23.7 µM (inactive),52 µM (inactive),23.2 µM (inactive),57.1 µM (inactive),15 µM (inactive),–,–
COc1cc(C2CC(C)(N3CCOCC3)Oc3cc4c(cc32)OCO4)cc(OC)c1OC (stereo not drawn),0.026 µM (active),0.189 µM (active),0.207 µM (active),0.0577 µM (active),0.136 µM (active),0.0228 µM (active),–,0.0352 µM (active),0.27 µM (active),–,0.243 µM (active),0.0619 µM (active),2.14 µM (inactive),0.136 µM (active),0.482 µM (active),0.226 µM (active),< 0.01 µM (active),0.2 µM (active)
O=C1CCCC2=C1C(c1ccc3c(c1)OCO3)Nc1ccc3ccccc3c12 (stereo not drawn),–,> 100 µM (inactive),> 100 µM (inactive),> 100 µM (inactive),–,–,> 100 µM (inactive),> 100 µM (inactive),> 100 µM (inactive),> 100 µM (inactive),16 µM (inactive),> 100 µM (inactive),> 100 µM (inactive),> 100 µM (inactive),> 100 µM (inactive),> 100 µM (inactive),> 100 µM (inactive),55.1 µM (inactive)
